Data published in patent publication US20250129104A1, “7H-PYRROLO[2,3-D]PYRIMIDINES AND PREPARATION AND USES THEREOF” (BioSplice Therapeutics, Inc., priority 2021, published 2025).
pEC50: −log10 of the molar value.

target: recombinant DYRK1A kinase (Homo sapiens (Human), UniProt Q13627); assay: DYRK1A kinase assay (Ser/Thr 18 peptide Z-lyte FRET assay); format: biochemical; conditions: DYRK1A kinase activity; 15 μM ATP, 1 h room temperature; method text calls the value IC50
In short: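 FRET Z-lyte read-out (coumarin/fluorescein ratio, % phosphorylation) after 1 h development; IC50 from non-linear curve fit. Reaction: 0.25 μg/mL recombinant human DYRK1A, Ser/Thr 18 peptide 4 μM, ATP 15 μM, compound in 11-point 1:3 series from 10 μM, 1 h, room temperature, duplicate wells.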

Compound	pEC50
CC(C)Oc1nc(N[C@H]2CC[C@@](C)(O)CC2)nc2[nH]cc(-c3ccn4nccc4c3)c12 [Compound 2320, cis-4-((4-Isopropoxy-5-(pyrazolo[1,5-a]pyridin-5-yl)-7H-pyrrolo[2,3-d]pyrimidin-2-yl)amino)-1-methylcyclohexan-1-ol]	7.23
COc1nc(NC2[C@H]3COC[C@@H]23)nc2[nH]cc(-c3ccn4nccc4c3)c12 (stereo partly drawn) [Compound 2323, N-((1R,5S,6r)-3-Oxabicyclo[3.1.0]hexan-6-yl)-4-methoxy-5-(pyrazolo[1,5-a]pyridin-5-yl)-7H-pyrrolo[2,3-d]pyrimidin-2-amine]	9.05
COc1nc(N[C@@H]2[C@@H]3COC[C@@H]32)nc2[nH]cc(-c3ccn4nccc4c3)c12 [Compound 2324, N-((1R,5S,6s)-3-oxabicyclo[3.1.0]hexan-6-yl)-4-methoxy-5-(pyrazolo [1,5-a]pyridin-5-yl)-7H-pyrrolo[2,3-d]pyrimidin-2-amine]	8.82
COc1nc(NCC(C)(C)F)nc2[nH]cc(-c3ccn4nccc4n3)c12 [Compound 2325, N-(2-Fluoro-2-methylpropyl)-4-methoxy-5-(pyrazolo[1,5-a]pyrimidin-5-yl)-7H-pyrrolo[2,3-d]pyrimidin-2-amine]	7.06
C[C@]1(O)CC[C@@H](Nc2ncc3c(-c4ccc5nccn5c4)c[nH]c3n2)CC1 [Compound 2349, cis-4-((5-(Imidazo[1,2-a]pyridin-6-yl)-7H-pyrrolo[2,3-d]pyrimidin-2-yl)amino)-1-methylcyclohexan-1-ol]	8.89
COc1nc(N[C@H]2CC[C@](C)(O)CC2)nc2[nH]cc(-c3ccc4nccn4c3)c12 [Compound 2378, trans-4-((5-(Imidazo[1,2-a]pyridin-6-yl)-4-methoxy-7H-pyrrolo[2,3-d]pyrimidin-2-yl)amino)-1-methylcyclohexan-1-ol]	8.96
COc1nc(N[C@H]2CC[C@](C)(O)CC2)nc2[nH]cc(-c3cc(F)c4nccn4c3)c12 [Compound 2494, trans-4-((5-(8-Fluoroimidazo[1,2-a]pyridin-6-yl)-4-methoxy-7H-pyrrolo[2,3-d]pyrimidin-2-yl)amino)-1-methylcyclohexan-1-ol]	8.96
C[C@]1(O)CC[C@@H](Nc2ncc3c(-c4ccc5ncnn5c4)c[nH]c3n2)CC1 [Compound 3018, (1s,4s)-4-((5-([1,2,4]Triazolo[1,5-a]pyridin-6-yl)-7H-pyrrolo[2,3-d]pyrimidin-2-yl)amino)-1-methylcyclohexan-1-ol]	8.36
COc1nc(N[C@H]2CC[C@@H](OC)CC2)nc2[nH]cc(-c3ccc4ncnn4c3)c12 [Compound 3047, 5-([1,2,4]Triazolo[1,5-a]pyridin-6-yl)-4-methoxy-N-(cis-4-methoxycyclohexyl)-7H-pyrrolo[2,3-d]pyrimidin-2-amine]	8.92
[2H]C([2H])([2H])Oc1nc(N[C@H]2CC[C@@H](OC)CC2)nc2[nH]cc(-c3ccc4nnn(C)c4c3)c12 [Compound 3115, 4-(Methoxy-d3)—N-(cis-4-methoxycyclohexyl)-5-(1-methyl-1H-benzo[d][1,2,3]triazol-6-yl)-7H-pyrrolo[2,3-d]pyrimidin-2-amine]	8.89
COc1nc(N[C@H]2CC[C@](C)(O)CC2)nc2[nH]cc(-c3ccc4nnn(C)c4c3)c12 [Compound 3119, trans-4-((4-Methoxy-5-(1-methyl-1H-benzo[d][1,2,3]triazol-6-yl)-7H-pyrrolo[2,3-d]pyrimidin-2-yl)amino)-1-methylcyclohexan-1-ol]	9.70
COc1nc(N[C@H]2CC[C@@](C)(O)CC2)nc2[nH]cc(-c3ccc4nnn(C)c4c3)c12 [Compound 3120, cis-4-((4-Methoxy-5-(1-methyl-1H-benzo[d][1,2,3]triazol-6-yl)-7H-pyrrolo[2,3-d]pyrimidin-2-yl)amino)-1-methylcyclohexan-1-ol]	8.38
COc1nc(N[C@@H]2[C@@H]3COC[C@@H]32)nc2[nH]cc(-c3ccc4nnn(C)c4c3)c12 [Compound 3127, N-((1R,5S,6s)-3-Oxabicyclo[3.1.0]hexan-6-yl)-4-methoxy-5-(1-methyl-1H-benzo[d][1,2,3]triazol-6-yl)-7H-pyrrolo[2,3-d]pyrimidin-2-amine]	8.85
COc1nc(N[C@@H]2[C@@H]3COC[C@@H]32)nc2[nH]cc(-c3ccc4nnn(C)c4c3)c12 [Compound 3128, N-((1R,5S,6r)-3-Oxabicyclo[3.1.0]hexan-6-yl)-4-methoxy-5-(1-methyl-1H-benzo[d][1,2,3]triazol-6-yl)-7H-pyrrolo[2,3-d]pyrimidin-2-amine]	9.22
COc1nc(NC2CCC3(CC2)COC3)nc2[nH]cc(-c3ccc4nnn(C)c4c3)c12 [Compound 3133, 4-Methoxy-5-(1-methyl-1H-benzo[d][1,2,3]triazol-6-yl)-N-(2-oxaspiro[3.5]nonan-7-yl)-7H-pyrrolo[2,3-d]pyrimidin-2-amine]	8.96
C[C@]1(O)CC[C@@H](Nc2ncc3c(-c4ccc5nccn5n4)c[nH]c3n2)CC1 [Compound 3224, (1s,4s)-4-((5-(Imidazo[1,2-b]pyridazin-6-yl)-7H-pyrrolo[2,3-d]pyrimidin-2-yl)amino)-1-methylcyclohexan-1-ol]	8.59

Compound	pEC50
CO[C@H]1CC[C@H](Nc2ncc3c(-c4ccn5nccc5c4)c[nH]c3n2)CC1 [Compound 3277, N-(trans-4-Methoxycyclohexyl)-5-(pyrazolo[1,5-a]pyridin-5-yl)-7H-pyrrolo[2,3-d]pyrimidin-2-amine]	8.72
FC(F)O[C@H]1CC[C@H](Nc2ncc3c(-c4ccn5nccc5c4)c[nH]c3n2)CC1 [Compound 3278, N-(trans-4-(Difluoromethoxy)cyclohexyl)-5-(pyrazolo[1,5-a]pyridin-5-yl)-7H-pyrrolo[2,3-d]pyrimidin-2-amine]	7.72
COc1nc(N)nc2[nH]cc(-c3ccn4nccc4c3)c12 [Compound 3291, 4-methoxy-5-(pyrazolo[1,5-a]pyridin-5-yl)-7H-pyrrolo[2,3-d]pyrimidin-2-amine]	8.96
COc1nc(N[C@H]2CC[C@H](OC)CC2)nc2[nH]cc(-c3ccn4nccc4c3)c12 [Compound 3310, 4-Methoxy-N-(trans-4-methoxycyclohexyl)-5-(pyrazolo[1,5-a]pyridin-5-yl)-7H-pyrrolo[2,3-d]pyrimidin-2-amine]	6.64
[2H]C([2H])([2H])Oc1nc(N[C@H]2CC[C@@H](OC)CC2)nc2[nH]cc(-c3ccn4nccc4c3)c12 [Compound 3311, 4-(Methoxy-d3)—N-(cis-4-methoxycyclohexyl)-5-(pyrazolo[1,5-a]pyridin-5-yl)-7H-pyrrolo[2,3-d]pyrimidin-2-amine]	8.85
COc1nc(NC2CC3(COC3)C2)nc2[nH]cc(-c3ccn4nccc4c3)c12 [Compound 3321, 4-Methoxy-5-(pyrazolo[1,5-a]pyridin-5-yl)-N-(2-oxaspiro[3.3]heptan-6-yl)-7H-pyrrolo[2,3-d]pyrimidin-2-amine]	7.43
COc1nc(NC2CCC3(CC2)COC3)nc2[nH]cc(-c3ccn4nccc4c3)c12 [Compound 3326, 4-Methoxy-5-(pyrazolo[1,5-a]pyridin-5-yl)-N-(2-oxaspiro[3.5]nonan-7-yl)-7H-pyrrolo[2,3-d]pyrimidin-2-amine]	8.80
COc1nc(N[C@H]2CC[C@@H](OC)CC2)nc2[nH]cc(-c3ccn4ncnc4c3)c12 [Compound 3384, 5-([1,2,4]Triazolo[1,5-a]pyridin-7-yl)-4-methoxy-N-(cis-4-methoxycyclohexyl)-7H-pyrrolo[2,3-d]pyrimidin-2-amine]	8.92
CO[C@H]1CC[C@H](Nc2ncc3c(-c4ccn5nccc5n4)c[nH]c3n2)CC1 [Compound 3420, N-(trans-4-Methoxycyclohexyl)-5-(pyrazolo[1,5-a]pyrimidin-5-yl)-7H-pyrrolo[2,3-d]pyrimidin-2-amine]	8.25
FC(F)O[C@H]1CC[C@H](Nc2ncc3c(-c4ccn5nccc5n4)c[nH]c3n2)CC1 [Compound 3421, N-(trans-4-(difluoromethoxy)cyclohexyl)-5-(pyrazolo[1,5-a]pyrimidin-5-yl)-7H-pyrrolo[2,3-d]pyrimidin-2-amine]	7.55
C[C@]1(O)CC[C@@H](Nc2ncc3c(-c4ccn5nccc5n4)c[nH]c3n2)CC1 [Compound 3426, (1s,4s)-1-Methyl-4-((5-(pyrazolo[1,5-a]pyrimidin-5-yl)-7H-pyrrolo[2,3-d]pyrimidin-2-yl)amino)cyclohexan-1-ol]	8.49
c1cc2nc(-c3c[nH]c4nc(NC5CCC6(CC5)COC6)ncc34)ccn2n1 [Compound 3435, 5-(Pyrazolo[1,5-a]pyrimidin-5-yl)-N-(2-oxaspiro[3.5]nonan-7-yl)-7H-pyrrolo[2,3-d]pyrimidin-2-amine]	8.64
CNc1nc(N[C@H]2CC[C@](C)(O)CC2)nc2[nH]cc(-c3ccn4nccc4n3)c12 [Compound 3454, trans-1-methyl-4-((4-(methylamino)-5-(pyrazolo[1,5-a]pyrimidin-5-yl)-7H-pyrrolo[2,3-d]pyrimidin-2-yl)amino)cyclohexan-1-ol]	8.47
CNc1nc(N2CC3(CO)CCC2CC3)nc2[nH]cc(-c3ccn4nccc4n3)c12 [Compound 3459, (2-(4-(methylamino)-5-(pyrazolo[1,5-a]pyrimidin-5-yl)-7H-pyrrolo[2,3-d]pyrimidin-2-yl)-2-azabicyclo[2.2.2]octan-4-yl)methanol]	6.68
CNc1nc(NC2CCC3(CC2)COC3)nc2[nH]cc(-c3ccn4nccc4n3)c12 [Compound 3461, N^4-Methyl-5-(pyrazolo[1,5-a]pyrimidin-5-yl)-N^2-(2-oxaspiro[3.5]nonan-7-yl)-7H-pyrrolo[2,3-d]pyrimidine-2,4-diamine]	8.72
COc1nc(N[C@H]2CC[C@@H](OC)CC2)nc2[nH]cc(-c3ccc4nccnc4c3)c12 [Compound 3575, 4-Methoxy-N-(cis-4-methoxycyclohexyl)-5-(quinoxalin-6-yl)-7H-pyrrolo[2,3-d]pyrimidin-2-amine]	9.15
